In assay [1] the test system is genotype A, "Long" strain RSV. In words: RSV-A assay (CPE protection in Hep-2 cells, ATPlite readout). The format is cell-based, Human respiratory syncytial virus (HRSV). The note with it: human respiratory syncytial virus, genotype A “Long” strain RSV, MOI 0.1, CPE protection, read-out: Human RSV-A (“Long”). The method in brief:
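Compound effect on RSV-induced CPE: Hep-2 monolayers, MOI 0.1, duplicate 2-fold titrations, 5-day culture in 10% FBS DMEM. Readout is ATP-based luminescence, normalised to virus-only and no-virus controls, giving EC50.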
A general note: ATP-based viability assays read luminescence as a measure of living cells.

The test system of assay [2] is HMPV clinical isolate TN/1501/A1. In words: HMPV antiviral assay Method-B (clinical isolate TN/1501/A1 in LLC-MK2 cells, ATP-Lite readout). The settings on record: human metapneumovirus, LLC-MK2, 144 h, hMPV WT1501 (clinical isolate TN/1501/A1), 6 days. The class given is cell-based, Human metapneumovirus (HMPV). The procedure, abridged:
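EC50 derived by four-parameter logistic fit of percent cell health, measured by ATP-Lite luminescence and normalised to virus-only and uninfected-cell controls. Compounds run in duplicate from 10 μM top, 3-fold, 10 points. Infection: LLC-MK2 cells, MOI 0.014, 2 μg/mL final TPCK-trypsin, serum-free, 6 days at 37° C.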

With `COc1cc(C(=O)NC[C@](O)(c2cc3c(c(-c4ccc(F)c(Cl)c4)n2)OC[C@]3(C)C(N)=O)C2(F)CC2)cc2cn(C(F)F)nc12` [Example 721], the EC50 in assay [1] was less than 200 nM; in assay [2] it was greater than 500 nM.
Turning to `COc1cc(C(=O)NC[C@](O)(c2cc3c(c(-c4ccc(F)c(Cl)c4)n2)OC[C@]3(C)C(N)=O)C2CC2)cc2sc(C)nc12` [Example 722], the figures for the EC50 in assay [1] and in assay [2] were less than 200 nM and less than 500 nM, respectively.
Take `COc1cc(C(=O)NC[C@](O)(c2cc3c(c(-c4ccc(F)c(Cl)c4)n2)OC[C@]3(C)C(N)=O)C2(F)CC2)cc2sc(C)nc12` [Example 723]: the results for the EC50 in assay [1] and in assay [2] were less than 200 nM and less than 500 nM, respectively.
The matching figures for `COc1cc(C(=O)NC[C@](O)(c2cc3c(c(-c4ccc(F)cc4)n2)OC[C@]3(C)C(N)=O)C2(F)CC2)cc2sc(C)nc12` [Example 724]: less than 200 nM and less than 500 nM.
For the compound `COc1cc(C(=O)NC[C@](O)(c2cc3c(c(-c4ccc5c(c4)OC(F)(F)O5)n2)OC[C@]3(C)C(N)=O)C2(F)CC2)cc2cn(C3(F)CC3)nc12` [Example 725], the EC50 was less than 200 nM in assay [1] and less than 500 nM in assay [2].
The matching figures for `COc1cc(C(=O)NC[C@](O)(c2cc3c(c(-c4ccc(F)cc4)n2)OC[C@]3(C)C(N)=O)C2CCC2)cc2cn(C3(F)CC3)nc12` [Example 726]: less than 200 nM and less than 500 nM.
The corresponding values for `COc1cc(C(=O)NC[C@](O)(c2cc3c(c(-c4ccc5c(c4)OC(F)(F)O5)n2)OC[C@]3(C)C(N)=O)C2(F)CC2)cc2sc(C)nc12` [Example 727] are less than 200 nM and less than 500 nM.
The matching figures for `COc1cc(C(=O)NC[C@](O)(c2cc3c(c(-c4ccc(F)cc4)n2)OC[C@]3(C)C(N)=O)C2CC2)cc2sc(C)nc12` [Example 728]: less than 200 nM and less than 500 nM.
For the compound `COc1cc(C(=O)NC[C@](O)(c2cc3c(c(-c4ccc(F)c(F)c4F)n2)OC[C@]3(C)C(N)=O)C2(F)CC2)cc2cn(C3CC3)nc12` [Example 729], the EC50 in assay [1] is less than 200 nM; in assay [2], less than 500 nM.
The matching figures for `Cc1cnc2c(OC(F)F)cc(C(=O)NC[C@](O)(c3cc4c(c(-c5ccc(F)c(F)c5F)n3)OC[C@]4(C)C(N)=O)C3(F)CC3)cc2c1` [Example 730]: less than 200 nM and less than 500 nM.
The matching figures for `COc1cc(C(=O)NC[C@](O)(c2cc3c(c(-c4ccc(F)c(F)c4F)n2)OC[C@]3(C)C(N)=O)C2(F)CC2)cc2cc(Cl)c(C)nc12` [Example 731]: less than 200 nM and less than 500 nM.
The matching figures for `COc1cc(C(=O)NC[C@](O)(c2cc3c(c(-c4ccc(F)cc4Cl)n2)OC[C@]3(C)C(N)=O)C2(F)CC2)cc2cn(C3CC3)nc12` [Example 732]: less than 200 nM and less than 500 nM.
`Cc1cnc2c(OC(F)F)cc(C(=O)NC[C@](O)(c3cc4c(c(-c5ccc(F)cc5Cl)n3)OC[C@]4(C)C(N)=O)C3(F)CC3)cc2c1` [Example 733]: the EC50 is less than 200 nM in assay [1] and less than 500 nM in assay [2].
`COc1cc(C(=O)NC[C@](O)(c2cc3c(c(-c4ccc(F)cc4Cl)n2)OC[C@]3(C)C(N)=O)C2(F)CC2)cc2cc(Cl)c(C)nc12` [Example 734]: the EC50 was less than 200 nM in assay [1] and less than 500 nM in assay [2].
The matching figures for `COc1cc(C(=O)NC[C@](O)(c2cc3c(c(-c4cc(Cl)ccc4F)n2)OC[C@]3(C)C(N)=O)C2(F)CC2)cc2cn(C3CC3)nc12` [Example 735]: less than 200 nM and less than 500 nM.
The corresponding values for `Cc1cnc2c(OC(F)F)cc(C(=O)NC[C@](O)(c3cc4c(c(-c5cc(Cl)ccc5F)n3)OC[C@]4(C)C(N)=O)C3(F)CC3)cc2c1` [Example 736] are less than 200 nM and less than 500 nM.
The corresponding values for `COc1cc(C(=O)NC[C@](O)(c2cc3c(c(-c4cc(Cl)ccc4F)n2)OC[C@]3(C)C(N)=O)C2(F)CC2)cc2cc(Cl)c(C)nc12` [Example 737] are less than 200 nM and less than 500 nM.
As for `Cc1cnc2c(Cl)cc(C(=O)NC[C@](O)(c3cc4c(c(-c5ccc(F)cc5)n3)OC[C@]4(C)C(N)=O)C3(F)CC3)cc2c1` [Example 738], the EC50 is less than 200 nM in assay [1] and less than 500 nM in assay [2].
The corresponding values for `Cc1nc2c(OC3CC3)cc(C(=O)NC[C@](O)(c3cc4c(c(-c5ccc(F)cc5)n3)OC[C@]4(C)C(N)=O)C3(F)CC3)cc2cc1Cl` [Example 739] are less than 200 nM and less than 500 nM.
The matching figures for `Cc1cnc2c(Cl)cc(C(=O)NC[C@](O)(c3cc4c(c(-c5ccc(F)cc5)n3)OC[C@]4(C)C(N)=O)C3CC3)cc2c1` [Example 740]: less than 200 nM and less than 500 nM.
The matching figures for `COc1cc(C(=O)NC[C@](O)(c2cc3c(c(-c4ccc(F)cc4)n2)OC[C@]3(C)C(N)=O)C2CC2)cc2sc(C3CC3)nc12` [Example 741]: less than 200 nM and less than 500 nM.
On to `COc1cc(C(=O)NC[C@](O)(c2cc3c(c(-c4ccc(F)cc4)n2)OC[C@]3(C)C(N)=O)C2(F)CC2)cc2sc(C3CC3)nc12` [Example 742], for which the figures for the EC50 in assay [1] and in assay [2] were less than 200 nM and less than 500 nM, respectively.
The corresponding values for `COc1cc(C(=O)NC[C@](O)(c2cc3c(c(-c4ccc(F)c(F)c4F)n2)OC[C@]3(C)C(N)=O)C2(F)CC2)cc2cn(C3(F)CC3)nc12` [Example 743] are less than 200 nM and less than 500 nM.
The matching figures for `COc1cc(C(=O)NC[C@](O)(c2cc3c(c(-c4ccc(F)c(F)c4F)n2)OC[C@]3(C)C(N)=O)C2(F)CC2)cc2cn(C(F)F)nc12` [Example 744]: less than 200 nM and less than 500 nM.
The corresponding values for `COc1cc(C(=O)NC[C@](O)(c2cc3c(c(-c4ccc(F)c(F)c4Cl)n2)OC[C@]3(C)C(N)=O)C2(F)CC2)cc2cn(C3CC3)nc12` [Example 745] are less than 200 nM and less than 500 nM.
On to `Cc1cnc2c(OC(F)F)cc(C(=O)NC[C@](O)(c3cc4c(c(-c5ccc(F)c(F)c5Cl)n3)OC[C@]4(C)C(N)=O)C3(F)CC3)cc2c1` [Example 746], for which the EC50 in assay [1] is less than 200 nM; in assay [2] it was less than 500 nM.
The corresponding values for `COc1cc(C(=O)NC[C@](O)(c2cc3c(c(-c4ccc(F)c(F)c4Cl)n2)OC[C@]3(C)C(N)=O)C2(F)CC2)cc2cc(Cl)c(C)nc12` [Example 747] are less than 200 nM and less than 500 nM.
`COc1cc(C(=O)NC[C@](O)(c2cc3c(c(-c4ccc(F)c(F)c4Cl)n2)OC[C@]3(C)C(N)=O)C2(F)CC2)cc2cn(C(F)F)nc12` [Example 748]: the results for the EC50 in assay [1] and in assay [2] were less than 200 nM and less than 500 nM, respectively.
The matching figures for `COc1cc(C(=O)NC[C@](O)(c2cc3c(c(-c4ccc(F)c(C(F)(F)F)c4)n2)OC[C@]3(C)C(N)=O)C2(F)CC2)cc2cn(C3CC3)nc12` [Example 749]: less than 200 nM and less than 500 nM.
The matching figures for `Cc1cnc2c(OC(F)F)cc(C(=O)NC[C@](O)(c3cc4c(c(-c5ccc(F)c(C(F)(F)F)c5)n3)OC[C@]4(C)C(N)=O)C3(F)CC3)cc2c1` [Example 750]: less than 200 nM and less than 500 nM.
The corresponding values for `COc1cc(C(=O)NC[C@](O)(c2cc3c(c(-c4ccc(F)c(C(F)(F)F)c4)n2)OC[C@]3(C)C(N)=O)C2(F)CC2)cc2cn(C(F)F)nc12` [Example 751] are less than 200 nM and less than 500 nM.
As to `COc1cc(C(=O)NC[C@](O)(c2cc3c(c(-c4ccc(F)c(Cl)c4F)n2)OC[C@]3(C)C(N)=O)C2(F)CC2)cc2cn(C3CC3)nc12` [Example 752], the EC50 is less than 200 nM in assay [1] and less than 500 nM in assay [2].
The corresponding values for `Cc1cnc2c(OC(F)F)cc(C(=O)NC[C@](O)(c3cc4c(c(-c5ccc(F)c(Cl)c5F)n3)OC[C@]4(C)C(N)=O)C3(F)CC3)cc2c1` [Example 753] are less than 200 nM and less than 500 nM.
For `COc1cc(C(=O)NC[C@](O)(c2cc3c(c(-c4ccc(F)c(Cl)c4F)n2)OC[C@]3(C)C(N)=O)C2(F)CC2)cc2cn(C(F)F)nc12` [Example 754], the EC50 in assay [1] was less than 200 nM; in assay [2], less than 500 nM.
`C[C@]1(C(N)=O)COc2c1cc([C@@](O)(CNC(=O)c1cc(Cl)c3nn(C4CC4)cc3c1)C1(F)CC1)nc2-c1ccc(F)cc1` [Example 755]: the EC50 was less than 200 nM in assay [1] and less than 500 nM in assay [2].
The corresponding values for `COc1cc(C(=O)NC[C@](O)(c2cc3c(c(-c4ccc(F)cc4)n2)OC[C@]3(C)C(N)=O)C2(F)CC2)cc2cn(C3(F)CC3)nc12` [Example 756] are less than 200 nM and less than 500 nM.
Turning to `C[C@]1(C(N)=O)COc2c1cc([C@@](O)(CNC(=O)c1cc(Cl)c3nn(C4CC4)cc3c1)C1(F)CC1)nc2-c1ccc(F)c(F)c1F` [Example 757], the EC50 in assay [1] is less than 200 nM; in assay [2] it was less than 500 nM.
The corresponding values for `COc1cc(C(=O)NC[C@](O)(c2cc3c(c(-c4cc(Cl)c(F)cc4F)n2)OC[C@]3(C)C(N)=O)C2(F)CC2)cc2cn(C3CC3)nc12` [Example 758] are less than 200 nM and less than 500 nM.
Consider `C[C@]1(C(N)=O)COc2c1cc([C@@](O)(CNC(=O)c1cc(Cl)c3nn(C4CC4)cc3c1)C1(F)CC1)nc2-c1cc(Cl)c(F)cc1F` [Example 759], for which the EC50 in assay [1] is less than 200 nM; in assay [2], less than 500 nM.
The matching figures for `COc1cc(C(=O)NC[C@](O)(c2cc3c(c(-c4cc(Cl)c(F)cc4F)n2)OC[C@]3(C)C(N)=O)C2(F)CC2)cc2cc(Cl)c(C)nc12` [Example 760]: less than 200 nM and less than 500 nM.

These data come from patent US12612412B2, “Antiviral heterocyclic compounds” (Enanta Pharmaceuticals, Inc., priority 2021, dated 2026).
